Measurements: the NIST ThermoML archive (doi:10.1016/j.jct.2010.10.018)

Experiment: xn = mol fraction of the nth substance listed
Settings: 101 kPa, Liquid, Vibrating tube method

CC(C)(C)O [2-methylpropan-2-ol] + O
Settings	mass density [kg/m3]
274.15 K, x1 = 0.00089	999.21
274.15 K, x1 = 0.00146	998.81
274.15 K, x1 = 0.00269	997.91
274.15 K, x1 = 0.00403	997.02
274.15 K, x1 = 0.00513	996.3
274.15 K, x1 = 0.00761	994.82
274.15 K, x1 = 0.01051	993.19
274.15 K, x1 = 0.01405	991.42
274.15 K, x1 = 0.01793	989.78
274.15 K, x1 = 0.02241	988.11
274.15 K, x1 = 0.03005	985.71
274.15 K, x1 = 0.04242	982.79
274.15 K, x1 = 0.08929	966.2
275.15 K, x1 = 0.00089	999.25
275.15 K, x1 = 0.00146	998.85
275.15 K, x1 = 0.00269	997.96
275.15 K, x1 = 0.00403	997.06
275.15 K, x1 = 0.00513	996.34
275.15 K, x1 = 0.00761	994.84
275.15 K, x1 = 0.01051	993.21
275.15 K, x1 = 0.01405	991.44
275.15 K, x1 = 0.01793	989.78
275.15 K, x1 = 0.02241	988.08
275.15 K, x1 = 0.03005	985.63
275.15 K, x1 = 0.04242	982.59
275.15 K, x1 = 0.08929	965.24
276.15 K, x1 = 0.00089	999.28
276.15 K, x1 = 0.00146	998.89
276.15 K, x1 = 0.00269	997.99
276.15 K, x1 = 0.00403	997.09
276.15 K, x1 = 0.00513	996.36
276.15 K, x1 = 0.00761	994.86
276.15 K, x1 = 0.01051	993.23
276.15 K, x1 = 0.01405	991.43
276.15 K, x1 = 0.01793	989.76
276.15 K, x1 = 0.02241	988.02
276.15 K, x1 = 0.03005	985.53
276.15 K, x1 = 0.04242	982.37
276.15 K, x1 = 0.08929	964.42
277.15 K, x1 = 0.00089	999.29
277.15 K, x1 = 0.00146	998.9
277.15 K, x1 = 0.00269	998.01
277.15 K, x1 = 0.00403	997.1
277.15 K, x1 = 0.00513	996.37
277.15 K, x1 = 0.00761	994.85
277.15 K, x1 = 0.01405	991.42
278.15 K, x1 = 0.00089	999.28
278.15 K, x1 = 0.00146	998.89
278.15 K, x1 = 0.00269	998.01
278.15 K, x1 = 0.00403	997.1
278.15 K, x1 = 0.00513	996.37
278.15 K, x1 = 0.00761	994.85
278.15 K, x1 = 0.01051	993.21
278.15 K, x1 = 0.01405	991.41
278.15 K, x1 = 0.01793	989.68
278.15 K, x1 = 0.02241	987.87
278.15 K, x1 = 0.0248	986.88
278.15 K, x1 = 0.03005	985.29
278.15 K, x1 = 0.03494	983.86
278.15 K, x1 = 0.04241	981.87
278.15 K, x1 = 0.04242	981.89
278.15 K, x1 = 0.05218	979.23
278.15 K, x1 = 0.05887	977
278.15 K, x1 = 0.06973	972.66
278.15 K, x1 = 0.08929	962.87
278.15 K, x1 = 0.1125	951.21
278.15 K, x1 = 0.1566	929.91
278.15 K, x1 = 0.208	910.57
278.15 K, x1 = 0.2408	899.29
278.15 K, x1 = 0.3023	882.17
278.15 K, x1 = 0.3451	872.16
278.15 K, x1 = 0.4045	860.22
278.15 K, x1 = 0.4225	857.05
278.15 K, x1 = 0.4653	849.9
278.15 K, x1 = 0.5344	839.61
278.15 K, x1 = 0.6029	831.08
278.15 K, x1 = 0.6909	821.72
278.15 K, x1 = 0.726	818.36
278.15 K, x1 = 0.7999	812.56
279.15 K, x1 = 0.00089	999.26
279.15 K, x1 = 0.00146	998.87
279.15 K, x1 = 0.00269	997.99
279.15 K, x1 = 0.00403	997.08
279.15 K, x1 = 0.00513	996.35
279.15 K, x1 = 0.00761	994.79
279.15 K, x1 = 0.01405	991.37
280.15 K, x1 = 0.00089	999.22
280.15 K, x1 = 0.00146	998.83
280.15 K, x1 = 0.00269	997.95
280.15 K, x1 = 0.00403	997.04
280.15 K, x1 = 0.00513	996.31
280.15 K, x1 = 0.00761	994.76
280.15 K, x1 = 0.01051	993.13
280.15 K, x1 = 0.01405	991.32
280.15 K, x1 = 0.01793	989.57
280.15 K, x1 = 0.02241	987.69
280.15 K, x1 = 0.03005	985
280.15 K, x1 = 0.04242	981.35
280.15 K, x1 = 0.08929	961.26
281.15 K, x1 = 0.00089	999.17
281.15 K, x1 = 0.00146	998.78
281.15 K, x1 = 0.00269	997.9
281.15 K, x1 = 0.00403	996.99
281.15 K, x1 = 0.00513	996.26
281.15 K, x1 = 0.00761	994.7
281.15 K, x1 = 0.01405	991.25
282.15 K, x1 = 0.00089	999.1
282.15 K, x1 = 0.00146	998.72
282.15 K, x1 = 0.00269	997.84
282.15 K, x1 = 0.00403	996.93
282.15 K, x1 = 0.00513	996.19
282.15 K, x1 = 0.00761	994.63
282.15 K, x1 = 0.01405	991.16
283.15 K, x1 = 0.00089	999.02
283.15 K, x1 = 0.00146	998.63
283.15 K, x1 = 0.00269	997.76
283.15 K, x1 = 0.00403	996.85
283.15 K, x1 = 0.00513	996.12
283.15 K, x1 = 0.00761	994.57
283.15 K, x1 = 0.01405	991.06
288.15 K, x1 = 0.00089	998.43
288.15 K, x1 = 0.00146	998.04
288.15 K, x1 = 0.00269	997.17
288.15 K, x1 = 0.00403	996.26
288.15 K, x1 = 0.00513	995.52
288.15 K, x1 = 0.00761	993.96
288.15 K, x1 = 0.01405	990.35
288.15 K, x1 = 0.0248	985.26
288.15 K, x1 = 0.03494	981.48
288.15 K, x1 = 0.04241	978.77
288.15 K, x1 = 0.05218	974.85
288.15 K, x1 = 0.05887	971.81
288.15 K, x1 = 0.06973	966.34
288.15 K, x1 = 0.1125	943.7
288.15 K, x1 = 0.1566	922.09
288.15 K, x1 = 0.208	902.66
288.15 K, x1 = 0.2408	891.25
288.15 K, x1 = 0.3023	874
288.15 K, x1 = 0.3451	863.89
288.15 K, x1 = 0.4045	851.78
288.15 K, x1 = 0.4225	848.63
288.15 K, x1 = 0.4653	841.48
288.15 K, x1 = 0.5344	830.98
288.15 K, x1 = 0.6029	822.27
288.15 K, x1 = 0.6909	812.77
288.15 K, x1 = 0.726	809.38
288.15 K, x1 = 0.7999	803.46
288.15 K, x1 = 0.8711	797.8
288.15 K, x1 = 0.9183	794.66
298.15 K, x1 = 0.00089	996.39
298.15 K, x1 = 0.00146	996
298.15 K, x1 = 0.00269	995.11
298.15 K, x1 = 0.00403	994.19
298.15 K, x1 = 0.00513	993.44
298.15 K, x1 = 0.00761	991.84
298.15 K, x1 = 0.01405	988.08
298.15 K, x1 = 0.0248	982.45
298.15 K, x1 = 0.03494	977.97
298.15 K, x1 = 0.04241	974.54
298.15 K, x1 = 0.05218	969.58
298.15 K, x1 = 0.05887	965.94
298.15 K, x1 = 0.06973	959.94
298.15 K, x1 = 0.1125	936.18
298.15 K, x1 = 0.1566	914.18
298.15 K, x1 = 0.208	894.55
298.15 K, x1 = 0.2408	883.06
298.15 K, x1 = 0.3023	865.6
298.15 K, x1 = 0.3451	855.48
298.15 K, x1 = 0.4045	843.11
298.15 K, x1 = 0.4225	839.94
298.15 K, x1 = 0.4653	832.83
298.15 K, x1 = 0.5344	822.05
